Test results reported in the NIST ThermoML archive (doi:10.1007/s10765-006-0110-x).

Conditions: Liquid, Pulse-echo method

COCCOC [1,2-dimethoxyethane]
speed of sound [m/s]
Conditions | 293.15 K | 303.15 K | 313.15 K | 323.15 K | 333.15 K | 343.15 K | 353.15 K
100 kPa | 1188.5 | 1144.8 | 1101.9 | 1059.4 | 1016.5 | 974.9 | 932.8
10000 kPa | 1242 | 1201.1 | 1161.1 | 1122.4 | 1083.1 | 1044.7 | 1005.8
20000 kPa | 1292.4 | 1252.2 | 1215.2 | 1178.7 | 1142.7 | 1107 | 1070
30000 kPa | 1336.4 | 1299.6 | 1263.9 | 1229.3 | 1195.2 | 1161.4 | 1127.3
40000 kPa | 1378.8 | 1343.2 | 1309.2 | 1275.9 | 1243.6 | 1211.6 | 1178.9
50000 kPa | 1418.2 | 1384.1 | 1350.7 | 1319.6 | 1288.4 | 1257.6 | 1226.3
60000 kPa | 1455.6 | 1422.5 | 1390.5 | 1361.5 | 1330.1 | 1300.5 | 1270.4
70000 kPa | 1490.4 | 1458 | 1428.3 | 1398.6 | 1369.3 | 1340.5 | 1311.3
80000 kPa | 1523.9 | 1492.6 | 1463.3 | 1434.7 | 1406.4 | 1378.6 | 1350.2
90000 kPa | 1555.7 | 1525.7 | 1497 | 1468.9 | 1441.3 | 1414.5 | 1387
100000 kPa | 1586.1 | 1557.2 | 1528.8 | 1501.5 | 1474.8 | 1448.7 | 1421.7
